From PMC2694132 (Cancer research, 2009)

Tests used:
Assay type in all cases: in vitro ADME
UGT1A3 = molecular target: T1, UGT1A3 (Homo sapiens, UniProt P35503); test: SAHA glucuronidation, UGT1A3-overexpressing HEK293 cell homogenate
T1 sequence (P35503 29-534): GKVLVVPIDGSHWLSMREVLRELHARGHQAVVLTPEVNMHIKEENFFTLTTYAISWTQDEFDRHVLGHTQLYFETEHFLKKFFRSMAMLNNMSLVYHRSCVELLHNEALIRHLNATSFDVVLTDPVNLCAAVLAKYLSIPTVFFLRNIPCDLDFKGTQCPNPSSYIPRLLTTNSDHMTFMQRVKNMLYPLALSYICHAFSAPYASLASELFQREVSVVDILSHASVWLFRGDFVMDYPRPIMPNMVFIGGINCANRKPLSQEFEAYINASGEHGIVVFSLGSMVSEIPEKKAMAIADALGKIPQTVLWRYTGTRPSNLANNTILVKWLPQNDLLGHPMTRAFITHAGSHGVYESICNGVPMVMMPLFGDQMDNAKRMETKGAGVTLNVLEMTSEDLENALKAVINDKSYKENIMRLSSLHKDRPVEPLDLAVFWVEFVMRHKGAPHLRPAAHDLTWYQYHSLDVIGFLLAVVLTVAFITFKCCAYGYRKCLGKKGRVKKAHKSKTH

UGT2B10 = molecular target: T2, UGT2B10 (Homo sapiens, UniProt P36537); test: SAHA glucuronidation screen, UGT2B10-overexpressing cell homogenate; details: 400 μg UGT-overexpressing cell homogenate, 1-h incubation
T2 sequence (P36537 24-528): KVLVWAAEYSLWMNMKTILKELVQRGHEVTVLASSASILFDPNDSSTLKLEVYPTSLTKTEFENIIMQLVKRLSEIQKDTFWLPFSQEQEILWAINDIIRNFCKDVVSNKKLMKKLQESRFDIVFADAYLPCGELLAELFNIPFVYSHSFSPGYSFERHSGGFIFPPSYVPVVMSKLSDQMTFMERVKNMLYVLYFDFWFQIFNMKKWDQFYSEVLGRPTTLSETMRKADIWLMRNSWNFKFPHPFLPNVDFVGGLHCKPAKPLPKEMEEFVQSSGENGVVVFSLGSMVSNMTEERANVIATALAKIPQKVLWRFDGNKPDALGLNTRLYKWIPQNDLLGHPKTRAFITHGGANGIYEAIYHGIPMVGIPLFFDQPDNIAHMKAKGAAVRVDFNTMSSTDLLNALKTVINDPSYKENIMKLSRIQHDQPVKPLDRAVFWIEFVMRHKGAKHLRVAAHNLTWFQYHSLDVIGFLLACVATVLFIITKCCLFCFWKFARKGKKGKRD

UGT1A6 = molecular target: T3, UGT1A6 (Homo sapiens, UniProt P19224); test: SAHA glucuronidation screen, UGT1A6-overexpressing cell homogenate
T3 sequence (P19224 27-532): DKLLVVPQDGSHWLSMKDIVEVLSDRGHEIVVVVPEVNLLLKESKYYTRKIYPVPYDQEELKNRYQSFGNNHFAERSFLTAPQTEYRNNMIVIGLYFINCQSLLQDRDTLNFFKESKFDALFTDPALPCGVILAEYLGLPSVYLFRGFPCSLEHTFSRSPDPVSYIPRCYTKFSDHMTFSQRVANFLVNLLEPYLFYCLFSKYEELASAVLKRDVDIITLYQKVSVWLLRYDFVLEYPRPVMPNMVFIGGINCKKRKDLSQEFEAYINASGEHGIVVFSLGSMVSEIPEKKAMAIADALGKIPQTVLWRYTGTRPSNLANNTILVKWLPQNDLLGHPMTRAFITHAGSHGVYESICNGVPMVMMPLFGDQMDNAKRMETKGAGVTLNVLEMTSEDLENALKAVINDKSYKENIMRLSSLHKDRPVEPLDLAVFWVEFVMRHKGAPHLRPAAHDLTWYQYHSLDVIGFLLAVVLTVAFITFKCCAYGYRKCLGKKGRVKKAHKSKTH

UGT2B7 = molecular target: T4, UGT2B7 (Homo sapiens, UniProt P16662); test: SAHA glucuronidation screen, UGT2B7-overexpressing cell homogenate
T4 sequence (P16662 24-529): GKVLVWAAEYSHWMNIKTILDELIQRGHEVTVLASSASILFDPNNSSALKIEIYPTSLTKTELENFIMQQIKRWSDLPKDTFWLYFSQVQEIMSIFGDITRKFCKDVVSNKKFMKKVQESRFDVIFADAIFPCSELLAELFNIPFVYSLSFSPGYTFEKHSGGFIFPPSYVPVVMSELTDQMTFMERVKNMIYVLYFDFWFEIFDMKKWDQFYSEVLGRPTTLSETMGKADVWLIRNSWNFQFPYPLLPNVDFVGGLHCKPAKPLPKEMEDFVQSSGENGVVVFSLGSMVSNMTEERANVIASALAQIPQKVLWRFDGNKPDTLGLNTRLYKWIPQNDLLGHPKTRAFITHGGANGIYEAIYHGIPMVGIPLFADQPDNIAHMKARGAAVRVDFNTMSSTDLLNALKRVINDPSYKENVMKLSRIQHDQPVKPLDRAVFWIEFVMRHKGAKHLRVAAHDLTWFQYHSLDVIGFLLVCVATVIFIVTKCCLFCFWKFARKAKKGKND

[1] = molecular target: T5, UGT1A7*4 (UGT1A7p.Trp208Arg) (Homo sapiens, UniProt Q9HAW7, W208R); test: SAHA glucuronidation, UGT1A7*4 variant cell homogenate
T5 sequence (Q9HAW7 26-530 W208R): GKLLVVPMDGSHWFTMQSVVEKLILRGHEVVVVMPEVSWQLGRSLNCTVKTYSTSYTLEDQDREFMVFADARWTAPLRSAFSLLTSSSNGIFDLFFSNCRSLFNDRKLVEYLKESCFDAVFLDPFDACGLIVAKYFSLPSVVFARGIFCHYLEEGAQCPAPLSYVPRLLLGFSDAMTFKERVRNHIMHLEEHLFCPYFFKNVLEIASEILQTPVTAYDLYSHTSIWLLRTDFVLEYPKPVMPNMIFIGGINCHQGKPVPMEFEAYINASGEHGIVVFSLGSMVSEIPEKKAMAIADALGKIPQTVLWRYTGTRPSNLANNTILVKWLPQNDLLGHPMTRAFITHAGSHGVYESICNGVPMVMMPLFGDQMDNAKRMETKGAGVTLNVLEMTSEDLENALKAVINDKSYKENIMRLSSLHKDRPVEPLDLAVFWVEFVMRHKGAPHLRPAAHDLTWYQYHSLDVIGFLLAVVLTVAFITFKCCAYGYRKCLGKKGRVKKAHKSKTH

[2] = 400 μg UGT-overexpressing cell homogenate, 1-h incubation

O=C(CCCCCCC(=O)Nc1ccccc1)NO [SAHA, Suberoylanilide hydroxamic acid]
glucuronidation against SAHA (screen) (UGT1A3; [2]): high levels of glucuronidation | Km at 1 h (UGT1A3; human, UGT1A3-overexpressing HEK293 cell homogenate, pH 7.5): 3.4 ± 0.8 mM | glucuronidation activity against SAHA (screen) (UGT2B10): No detectable glucuronidation activity | glucuronidation against SAHA (UGT1A6; [2]): detectable levels of glucuronidation | Km at 1 h (UGT1A6; human, UGT1A6-overexpressing cell homogenate, pH 7.5): > 8 mM | glucuronidation against SAHA (UGT2B7; [2]): detectable levels of glucuronidation | Km at 1 h (UGT2B7; human, UGT2B7-overexpressing cell homogenate, pH 7.5): > 8 mM | difference in glucuronidation activity against SAHA versus wild-type UGT1A7 ([1]; UGT1A7 variants): No significant difference | Km at 1 h ([1]; human, pH 7.5): 2.2 ± 0.5 mM
